{
  "source": "patent US8383639B2",
  "about": "“HIV integrase inhibitors” (priority 2009, dated 2013)",
  "test_system": "recombinant NL-Rluc virus",
  "assay": "Inhibition of HIV replication (NL-RLuc pseudotype virus, luciferase)",
  "format": "cell-based",
  "settings": "Human immunodeficiency virus 1, read-out: Activity (EC50)",
  "data": [
    {"compound": "CC1(C)OCCn2c1nc(-c1ncc(Cc3ccc(F)cc3)s1)c(O)c2=O", "note": "[Example 11, 2-(5-(4-Fluorobenzyl)thiazol-2-yl)-3-hydroxy-9,9-dimethyl-6,7-dihydropyrimido[2,1-c][1,4]oxazin-4(9H)-one]", "values": [
      {"measurement": "EC50", "value": 14, "unit": "nM"}
    ]},
    {"compound": "CCOc1nc(-c2nc(Cc3ccc(F)cc3)no2)c(O)c(=O)n1C", "note": "[Example 7, 2-Ethoxy-6-(3-(4-fluorobenzyl)-1,2,4-oxadiazol-5-yl)-5-hydroxy-3-methylpyrimidin-4(3H)-one]", "values": [
      {"measurement": "EC50", "value": 31000, "unit": "nM"}
    ]},
    {"compound": "CC1(C)OCCn2c1nc(-c1ncn(Cc3ccc(F)cc3)n1)c(O)c2=O", "note": "[Example 5, 2-(1-(4-Fluorobenzyl)-1H-1,2,4-triazol-3-yl)-3-hydroxy-9,9-dimethyl-6,7-dihydropyrimido[2,1-c][1,4]oxazin-4(9H)-one]", "values": [
      {"measurement": "EC50", "value": 7, "unit": "nM"}
    ]},
    {"compound": "Cn1c(C2CCCC2)nc(-c2nc(Cc3ccc(F)cc3)no2)c(O)c1=O", "note": "[Example 9, 2-Cyclopentyl-6-(3-(4-fluorobenzyl)-1,2,4-oxadiazol-5-yl)-5-hydroxy-3-methylpyrimidin-4(3H)-one]", "values": [
      {"measurement": "EC50", "value": 22000, "unit": "nM"}
    ]},
    {"compound": "CC1(C)OCCn2c1nc(-c1cn(Cc3ccc(F)cc3)cn1)c(O)c2=O", "note": "[Example 3, 2-(1-(4-Fluorobenzyl)-1H-imidazol-4-yl)-3-hydroxy-9,9-dimethyl-6,7-dihydropyrimido[2,1-c][1,4]oxazin-4(9H)-one]", "values": [
      {"measurement": "EC50", "value": 5, "unit": "nM"}
    ]},
    {"compound": "Cn1c(Cc2ccc(F)cc2)cnc1-c1nc2n(c(=O)c1O)CCOC2(C)C", "note": "[Example 2, 2-(5-(4-Fluorobenzyl)-1-methyl-1H-imidazol-2-yl)-3-hydroxy-9,9-dimethyl-6,7-dihydropyrimido[2,1-c][1,4]oxazin-4(9H)-one]", "values": [
      {"measurement": "EC50", "value": 10, "unit": "nM"}
    ]},
    {"compound": "CC1(C)OCCn2c1nc(-c1nnc(Cc3ccc(F)cc3)[nH]1)c(O)c2=O", "note": "[Example 4, 2-(5-(4-Fluorobenzyl)-4H-1,2,4-triazol-3-yl)-3-hydroxy-9,9-dimethyl-6,7-dihydropyrimido[2,1-c][1,4]oxazin-4(9H)-one]", "values": [
      {"measurement": "EC50", "value": 51, "unit": "nM"}
    ]},
    {"compound": "CC1(C)OCCn2c1nc(-c1ncc(Cc3ccc(F)cc3)[nH]1)c(O)c2=O", "note": "[Example 1, 2-(5-(4-Fluorobenzyl)-1H-imidazol-2-yl)-3-hydroxy-9,9-dimethyl-6,7-dihydropyrimido[2,1-c][1,4]oxazin-4(9H)-one]", "values": [
      {"measurement": "EC50", "value": 7, "unit": "nM"}
    ]},
    {"compound": "CC1(C)OCCn2c1nc(-c1nnc(Cc3ccc(F)cc3)o1)c(O)c2=O", "note": "[Example 12, 2-(5-(4-Fluorobenzyl)-1,3,4-oxadiazol-2-yl)-3-hydroxy-9,9-dimethyl-6,7-dihydropyrimido[2,1-c][1,4]oxazin-4(9H)-one]", "values": [
      {"measurement": "EC50", "value": 8, "unit": "nM"}
    ]},
    {"compound": "Cn1c(Cc2ccc(F)cc2)nnc1-c1nc2n(c(=O)c1O)CCOC2(C)C", "note": "[Example 6, 2-(5-(4-Fluorobenzyl)-4-methyl-4H-1,2,4-triazol-3-yl)-3-hydroxy-9,9-dimethyl-6,7-dihydropyrimido[2,1-c][1,4]oxazin-4(9H)-one]", "values": [
      {"measurement": "EC50", "value": 141, "unit": "nM"}
    ]}
  ]
}
